Assay results from US9044038B2, “Method of improving sweetness qualities of stevia extract” (SAN-EI GEN F.F.I., INC., priority 2007, dated 2015).
Peptide text beside a SMILES is read from it.

Assays:
[1] = Concentration having the same degree of sweetness as a 5% aqueous sucrose solution (Example 1, Table 1); assay type: in vivo
Text: The degree of sweetness of rebaudioside A and that of mogroside V depends on the pH. […] Citric acid and trisodium citrate were used to prepare pH3 and pH4.5 solutions, and sodium bicarbonate was used to prepare pH7 solutions.

[2] = general statement in description; cited from earlier work
panelists [3] = assay: Improvement in sweetness quality of sweeteners by additives, panel score (Example 14); assay type: in vivo; conditions: additive added to 0.03% stevia extract aqueous solution
panelists [4] = assay: as above; assay type: in vivo; conditions: for improvement in the sweetness quality of stevia extract: additive added to 0.03% stevia extract aqueous solution; for improvement in sweetness quality, average score of twelve panelists: vs sweetener alone, 2 improvement, 1 slight improvement, 0 no improvement
Protocol: Aqueous solutions containing various sweeteners (stevia extract, siraitia grosvenori extract, licorice extract, thaumatin, aspartame, and neotame) in the concentrations shown in Table 20 were prepared. […] The evaluation was conducted by scoring the improvement in sweetness quality based on the criteria described below in comparison with an aqueous solution containing only each of the sweeteners (Control).

[5] = Concentration of sweetener with the same degree of sweetness as a 6% aqueous sucrose solution (Example 14, Table 20); assay type: in vivo
Protocol: Aqueous solutions containing various sweeteners (stevia extract, siraitia grosvenori extract, licorice extract, thaumatin, aspartame, and neotame) in the concentrations shown in Table 20 were prepared.

[6] = additive Gentiooligosaccharide (Gentose#45) 0.4%
[7] = additive Highly branched cyclic dextrin (Cluster Dextrin) 0.07%
[8] = additive Magnesium chloride 0.05%
[9] = additive Magnesium sulfate 0.05%

Compound | remaining aftertaste of sweetness in stevia extract (panelists [3]) | richness (body) of stevia extract (panelists [3]) | improvement in sweetness quality, average score of twelve panelists (panelists [4]; [6]) [points] | improvement in sweetness quality, average score of twelve panelists (panelists [4]; [7]) [points] | improvement in sweetness quality, average score of twelve panelists (panelists [4]; [8]) [points] | improvement in sweetness quality, average score of twelve panelists (panelists [4]; [9]) [points] | improvement in sweetness quality, average score of twelve panelists (panelists [4]; additive Naringin 0.0025%) [points] | Concentration (%) exhibiting the same degree of sweetness as a 6% aqueous sucrose solution [5] [%] | also measured
C=C1C[C@@]23CC[C@H]4[C@@](C)(CCC[C@@]4(C)C(=O)O[C@@H]4O[C@H](CO)[C@@H](O)[C@H](O)[C@H]4O)[C@@H]2CC[C@]1(O[C@@H]1O[C@H](CO)[C@@H](O)[C@H](O[C@@H]2O[C@H](CO)[C@@H](O)[C@H](O)[C@H]2O)[C@H]1O[C@@H]1O[C@H](CO)[C@@H](O)[C@H](O)[C@H]1O)C3 [Rebaudioside A, rebaudioside A] | – | – | – | – | – | – | – | – | concentration having the same degree of sweetness as a 5% aqueous sugar solution ([1]; pH 3, substance singly): 0.0228%; concentration having the same degree of sweetness as a 5% aqueous sugar solution ([1]; pH 4.5, substance singly): 0.0219%; concentration having the same degree of sweetness as a 5% aqueous sugar solution ([1]; pH 7, substance singly): 0.02%
C[C@H](CC[C@@H](O[C@@H]1O[C@H](CO[C@@H]2O[C@H](CO)[C@@H](O)[C@H](O)[C@H]2O)[C@@H](O)[C@H](O)[C@H]1O[C@@H]1O[C@H](CO)[C@@H](O)[C@H](O)[C@H]1O)C(C)(C)O)[C@H]1CC[C@@]2(C)[C@@H]3CC=C4[C@@H](CC[C@H](O[C@@H]5O[C@H](CO[C@@H]6O[C@H](CO)[C@@H](O)[C@H](O)[C@H]6O)[C@@H](O)[C@H](O)[C@H]5O)C4(C)C)[C@]3(C)[C@H](O)C[C@]12C [Mogroside V, mogroside V] | – | – | – | – | – | – | – | – | degree of sweetness (sweetness intensity) [2]: about 300 times that of sucrose; concentration having the same degree of sweetness as a 5% aqueous sugar solution ([1]; pH 3, substance singly): 0.03%; concentration having the same degree of sweetness as a 5% aqueous sugar solution ([1]; pH 4.5, substance singly): 0.03%; concentration having the same degree of sweetness as a 5% aqueous sugar solution ([1]; pH 7, substance singly): 0.0255%
C[C@@H]1O[C@@H](O[C@H]2[C@H](Oc3cc(O)c4c(c3)O[C@H](c3ccc(O)cc3)CC4=O)O[C@H](CO)[C@@H](O)[C@@H]2O)[C@H](O)[C@H](O)[C@H]1O [Naringin, naringin] | reduced | increased | – | – | – | – | – | – | –
O=S(=O)([O-])[O-].[Mg+2] [Magnesium sulfate, magnesium sulfate] | reduced | increased | – | – | – | – | – | – | improvement in the sweetness quality of stevia extract (panelists [4]): remarkably excellent improvements
thaumatin | – | – | 0.8 | 0.5 | 1.0 | 1.3 | 0.7 | 0.0024 | –
[Cl-].[Cl-].[Mg+2] [Magnesium chloride, magnesium chloride] | reduced | increased | – | – | – | – | – | – | improvement in the sweetness quality of stevia extract (panelists [4]): remarkably excellent improvements
COC(=O)[C@H](Cc1ccccc1)NC(=O)[C@@H](N)CC(=O)O [Aspartame, aspartame] (H-Asp-Phe-OMe) | – | – | 0.3 | 0.3 | 0.8 | 0.7 | 0.3 | 0.038 | –
COC(=O)[C@H](Cc1ccccc1)NC(=O)[C@H](CC(=O)O)NCCC(C)(C)C [Neotame, neotame] | – | – | 0.8 | 0.8 | 0.8 | 0.8 | 1.0 | 0.0008 | –
